From patent publication US5556744A, “Methods and compositions for diagnosing and treating certain HIV infected patients” (The Trustees of the University of Pennsylvania, priority 1994, dated 1996)

System: maternal sera (antibodies)
Assay: ELISA peptide-binding of maternal sera (Example 6)
Set-up: species or system human
Conditions: for Number of Non-Transmitters which bound to peptide / Percent of Non-Transmitters which bound to peptide: N = 12; for Number of Transmitters which bound to peptide / Percent of Transmitters which bound to peptide: N = 4; for Correlation of peptide binding with non-transmitters (in words) / Fold binding, non-transmitters vs transmitters: Example 6
Description: A total of 86 maternal sera samples obtained from patients of the Hospital of the University of Pennsylvania during the third trimester of pregnancy were used in this study 58 (67%) were non-transmitters and 28 (33%) were transmitters. This is approximately consistent with the national average (i.e. a rate of transmission between 25-30%). Transmission status was based upon serological or molecular diagnosis of children (at an age of greater than 15 months) born to these mothers. Because of the constraints on the volume of serum available for many of these samples, not all sera were analyzed with all the peptides. However, each sera sample was run with at least 40 peptides.
These peptides are of an average length of 16 amino acids and covered the entire external as well as the transmembrane glycoprotein of HIV-1. Peptide binding was analyzed by ELISA essentially as described in Example 3.
The results of one study, using some of the peptides identified above among others, is provided in Table 12, which illustrates the number and percent of non-transmitters which bound to the tested peptide. The percentage designation refers to the percentage of sera samples which bound to a particular peptide. A value of greater than 0% means that at least one of the samples bound to the particular peptides.

Row | Substance | Number of Non-Transmitters which bound to peptide | Percent of Non-Transmitters which bound to peptide [%] | Number of Transmitters which bound to peptide | Percent of Transmitters which bound to peptide [%] | Correlation of peptide binding with non-transmitters (in words) | Fold binding, non-transmitters vs transmitters | Percent of Non-Transmitters which bound to peptide (listed as 1/SP10 IIIB) | Percent of Non-Transmitters which bound to peptide (listed as AID-PND)
1 | 124: gp41 peptide, amino acids 646-660, SEQ ID NO:123 (IEESQNQQEKNEQEL) [Peptide 124] | 0 | 0 | 0 | 0 |  |  |  | 
2 | 5099: gp41 peptide, amino acids 512-543, HIV strain IIIB, SEQ ID NO: 162 (AYGIGALFLGFLGAAGSTMGAASMTLTVQARC) [Peptide 5099] | 1 | 83 | 0 | 0 |  |  |  | 
3 | A405: gp120 peptide, amino acids 405-423, HIV strain Z3, SEQ ID NO: 130 (TGNITLPCRIKQVVRTWQG) [Peptide A405] | 1 | 8.3 | 0 | 0 |  |  |  | 
4 | A487: gp120 peptide, amino acids 481-503, HIV strain IIIB, SEQ ID NO: 132 (ELYKYKVVKIEPLGVAPTKAKRR) [Peptide A487] | 1 | 8.3 | 0 | 0 |  |  |  | 
5 | A524: gp41 peptide, amino acids 523-530, HIV strain MN, SEQ ID NO: 163 (FLGFLGAAGST) [Peptide A524] | 0 | 0 | 0 | 0 |  |  |  | 
6 | A581: gp41 peptide, amino acids 576-592, SEQ ID NO:120 (LQARILAVERYLKDQQL) [Peptide A581] | 2 | 16.7 | 0 | 0 |  |  |  | 
7 | A604 (IIIB): Peptide A604 (IIIB), Sequence ID No. 193 (CTTAVPWNASWSNKS) | 2 | 16.7 | 0 | 0 |  |  |  | 
8 | A620: gp41 peptide, amino acids 615-627, HIV strain IIIB, SEQ ID NO: 172 (SNKSLEQIWNNMT) [Peptide A620] | 1 | 8.3 | 0 | 0 |  |  |  | 
9 | A733: gp41 peptide, amino acids 728-745, HIV strain IIIB, SEQ ID NO: 174 (DRPEGIEEEGGERDRDRS) [Peptide A733] | 1 | 8.3 | 0 | 0 |  |  |  | 
10 | A824: gp41 peptide, amino acids 824-831, HIV strain IIIB, SEQ ID NO: 175 (EGTDRVIE) [Peptide A824] | 0 | 0 | 0 | 0 |  |  |  | 
11 | A6938: gp120 peptide, amino acids 200-217, HIV strain IIIB, SEQ ID NO: 135 (VITQACPKVSFEPIPIHY) [Peptide A6938] | 0 | 0 | 0 | 0 |  |  |  | 
12 | A6939: gp120 peptide, amino acids 210-227, SEQ ID NO:108 (FEPIPIHYCAPAGFAILK) [Peptide A6939] | 0 | 0 | 0 | 0 |  |  |  | 
13 | BS-1: gp120 peptide, amino acids 319-329, SEQ ID NO:114 (TIGKIGNMRQA) | 0 | 0 | 0 | 0 |  |  |  | 
14 | BS-2: gp41 peptide, amino acids 625-634, HIV strain IIIB, SEQ ID NO: 176 (NMTWMEWDRE) | 0 | 0 | 0 | 0 |  |  |  | 
15 | C21E: gp120 peptide, amino acids 252-272, HIV strain MN, SEQ ID NO: 147 (CTHGIRPVVSTQLLLNGSLAE) [Peptide C21E] | 0 | 0 | 0 | 0 |  |  |  | 
16 | CNNKTFNGTGFCTNVSTVQ (CNNKTFNGTGPCTNVSTVQ) [Peptide C19Q] | 4 |  | 0 | 0 |  |  |  | 
17 | DC419 (IIIB): Peptide DC419 (IIIB), Sequence ID No. 191 (TGDIITLPCRIKQIINRWQV) | 0 | 0 | 0 | 0 |  |  |  | 
18 | KQIINMWQEVGKAMYA/CTRPNNNTRKSIRIQRGPG (KQIINMWQEVGKAMYACTRPNNNTRKSIRIQRGPG) [1/SP10IIIB] | 8 | 66.7 | 1 | 25 | selectively correlate with non-transmitters | at least two fold greater | greater than 50% | 
19 | RG-1: gp41 peptide, amino acids 510-516, HIV strain IIIB, SEQ ID NO: 177 (KRAVGIG) | 3 | 25 | 1 | 25 |  |  |  | 
20 | RG-2: gp41 peptide, amino acids 678-697, HIV strain IIIB, SEQ ID NO: 178 (WLWYIKLFIMIVGGLVGLRI) | 0 | 0 | 0 | 0 |  |  |  | 
21 | S19C: Peptide S19C, Sequence ID No. 196; described in the January 1991 Catalog (STQLLLNGSLAEEEVVIR) | 0 | 0 | 0 | 0 |  |  |  | 
22 | T19V: Peptide T19V, Sequence ID No. 195; described in the January 1991 Catalog (TGPCTNVSTVQCTHGIRPV) | 3 | 25 | 0 | 0 |  |  |  | 
23 | VVQREKRAVGIG [Peptide 510] | 4 |  | 0 | 0 |  |  |  | 
24 | WSK-1: gp120 peptide, amino acids 378-394, SEQ ID NO:115 (GGEFFYCNSTQLFNSTW) | 0 | 0 | 0 | 0 |  |  |  | 
25 | YNKRKRIHIQRGPGRAFYTTKNII [AIDS-PND] | 7 | 58.3 | 1 | 25 | selectively correlate with non-transmitters | at least two fold greater |  | greater than 50%
26 | p41-20: gp41 peptide, amino acids 644-663, HIV strain IIIB, SEQ ID NO: 154 (SLIEESQNQQEKNEQELLEL) | 2 | 16.7 | 0 | 0 |  |  |  | 
